According to patent US20080293076A1, “Method to improve barrier function of cell-cell junctions” (UMC Utrecht Holding B.V., priority 2007, published 2008):

Tested on: HUVEC
Assay: Endothelial permeability assay: electrical resistance across HUVEC monolayer (ECIS)
Assay type: cell-based, human
Settings: for decreased resistance in PDZ-GEF2-depleted cells: PDZ-GEF2 siRNA
Description: FIG. 2: PDZ-GEF2 knockdown in HUVECs leads to immature adherens junction and decreases endothelial resistance. Panel A: PDZ-GEF2 knockdown leads to immature VE-cadherin-based junctions in endothelial cells. HUVEC were transfected twice with scrambled, Epac1 or PDZ-GEFs siRNA and replated on glass coverslips. The cells were fixed when they formed a monolayer and immunostained with anti-VE-cadherin antibody. Panel B: Basal electrical resistance across HUVEC monolayers. Cells were treated as described in A and replated on electrodes. ECIS was measured continuously for 15 hours and the values reported are the final time points. […] The values reported correspond to the endothelial resistance measured 90 minutes after adding 007 to the culture media. * p<0.03 control mock vs 007; p<0.001 PDZ-GEF2.285 mock vs 007.
293T and A549 cells were transfected using FuGENE6 reagent for 48 hours (Roche Diagnostics Corporation). For siRNA, A549 cells and HUVEC were transfected using oligofectamine (Invitrogen) for 24 to 48 hours according to the manufacturer's instructions. In the case of the HUVEC, transfection was repeated after 24 hours. Samples were analyzed 48 hours after the second round of transfection. Oligos sequences (Dharmacon): PDZ-GEF2 (285: GGATCCAACTTATATAGAA) (SEQ ID NO:______); (289: GACACGGATTGTATTATTA) (SEQ ID NO:______); *Epac1 (GCACCTA CGTCTGCAACAA) (SEQ ID NO:______) and (CCATCATCCTGCGAGAAGA) (SEQ ID NO:______). 8-pCPT-2′O-Me-cAMP/8-pCPT -2′-OMe-cAMP (Biolog) was used at a final concentration of 100 μM. Quantification of the PDZ-GEF2 knockdown was performed using Scion Image (Scion Corporation).
To assess endothelial permeability, we measured electrical resistance continuously across endothelial cell monolayer using the methodology known as “Electric Cell-Substrate Impedance Sensing” (ECIS).^[21] Briefly, HUVEC were grown to confluence on small gold electrodes and ECIS was subsequently monitored for up to 15 hours. Data was analyzed using the Applied Biophysics software.

[1] = HUVEC, 100 μM, 30-minute stimulation

SMILES: CO[C@@H]1[C@@H]2OP(=O)(O)OC[C@H]2O[C@H]1n1c(Sc2ccc(Cl)cc2)nc2c(N)ncnc21 [8-pCPT-2′-OMe-cAMP]
- endothelial resistance in PDZ-GEF2 knockdown HUVEC (90 minutes after adding 007, PDZ-GEF2.285, p<0.001 mock vs 007): rescues the PDZ-GEF2 knockdown phenotype
- endothelial resistance in control HUVEC (90 minutes after adding 007 to the culture media, p<0.03 mock vs 007): increases endothelial resistance
- electrical resistance in Epac1 siRNA cells (HUVEC transfected with Epac1 siRNA, 100 μM): minimal effect
- electrical resistance in scrambled siRNA cells [1]: increased resistance
- decreased resistance in PDZ-GEF2-depleted cells [1]: completely rescued
- decreased resistance in PDZ-GEF2-depleted cells (HUVEC, 100 μM, 30-minute stimulation, listed as 8-pCPT-2′OMe-cAMP): rescued
